These results are taken from patent US10112929B2, “Lactams as inhibitors of rock” (BRISTOL-MYERS SQUIBB COMPANY, priority 2015, dated 2018).

pIC50: −log10 of the molar value.
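Note: rho kinase enzyme reaction halted with EDTA, phospho- and non-phospho peptide separated for read-out, kinase activity inhibition derived across a dose-response series, DMSO under 2%.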

ROCK2, sequence (O75116 whole entry, species assumed): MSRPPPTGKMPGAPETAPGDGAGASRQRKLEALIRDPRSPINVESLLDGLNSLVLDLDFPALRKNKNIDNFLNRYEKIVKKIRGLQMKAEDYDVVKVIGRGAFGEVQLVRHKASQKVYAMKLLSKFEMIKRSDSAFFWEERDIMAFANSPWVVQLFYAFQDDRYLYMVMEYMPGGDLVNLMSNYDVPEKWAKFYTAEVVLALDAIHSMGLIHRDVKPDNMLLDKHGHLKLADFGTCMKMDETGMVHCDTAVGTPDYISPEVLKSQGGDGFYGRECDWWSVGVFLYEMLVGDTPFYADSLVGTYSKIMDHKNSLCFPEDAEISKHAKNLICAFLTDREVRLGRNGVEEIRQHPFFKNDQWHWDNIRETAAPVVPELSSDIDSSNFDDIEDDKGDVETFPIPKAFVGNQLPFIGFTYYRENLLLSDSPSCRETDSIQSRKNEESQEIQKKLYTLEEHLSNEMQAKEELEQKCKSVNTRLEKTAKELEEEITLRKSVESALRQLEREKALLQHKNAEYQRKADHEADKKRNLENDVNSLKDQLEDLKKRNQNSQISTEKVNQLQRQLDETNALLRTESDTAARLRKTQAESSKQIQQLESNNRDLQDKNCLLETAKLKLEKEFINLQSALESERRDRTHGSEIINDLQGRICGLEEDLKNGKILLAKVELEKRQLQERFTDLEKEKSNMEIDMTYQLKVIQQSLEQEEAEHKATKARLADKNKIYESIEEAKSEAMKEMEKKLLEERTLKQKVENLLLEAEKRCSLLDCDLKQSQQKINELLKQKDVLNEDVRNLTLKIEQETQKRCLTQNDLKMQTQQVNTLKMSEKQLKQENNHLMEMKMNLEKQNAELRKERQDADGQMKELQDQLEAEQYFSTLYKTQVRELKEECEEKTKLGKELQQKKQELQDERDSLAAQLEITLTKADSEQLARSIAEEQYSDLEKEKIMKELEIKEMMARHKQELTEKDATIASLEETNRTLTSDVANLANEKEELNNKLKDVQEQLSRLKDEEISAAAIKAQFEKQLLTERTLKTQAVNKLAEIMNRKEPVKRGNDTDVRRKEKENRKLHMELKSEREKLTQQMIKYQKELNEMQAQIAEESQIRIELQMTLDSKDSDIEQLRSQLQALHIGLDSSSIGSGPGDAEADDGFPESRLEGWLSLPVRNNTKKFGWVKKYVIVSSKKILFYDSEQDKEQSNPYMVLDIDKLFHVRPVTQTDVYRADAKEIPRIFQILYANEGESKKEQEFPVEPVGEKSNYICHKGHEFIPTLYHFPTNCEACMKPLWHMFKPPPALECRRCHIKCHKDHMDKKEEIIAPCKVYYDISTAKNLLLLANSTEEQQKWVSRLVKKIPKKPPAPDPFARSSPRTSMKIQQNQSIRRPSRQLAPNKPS

The assay has as its target ROCK2 (Homo sapiens (Human), UniProt O75116). The experiment in a line: biochemical.
For `COc1cc(NC2CCN(c3ccc(-c4cn[nH]c4)c(OC)n3)C2=O)ccc1F` (single isomer, unassigned) [Example 207, 3-((4-fluoro-3-methoxyphenyl)amino)-1-(6-methoxy-5-(1H-pyrazol-4-yl)pyridin-2-yl)pyrrolidin-2-one], the pIC50 (as a rule, the IC50 on a negative log10 scale, so that one unit is a factor of ten) was > 8.00.

With `COc1cc(NC2CCN(c3cc(C)c(-c4cn[nH]c4)cn3)C2=O)ccc1F` (single isomer, unassigned) [Example 209, 3-((4-fluoro-3-methoxyphenyl)amino)-1-(4-methyl-5-(1H-pyrazol-4-yl)pyridin-2-yl)pyrrolidin-2-one], the negative logarithm of the IC50 (pIC50) is 5.66 to 7.00.

Turning to `CCc1cc(N2CCC(Nc3ccc(F)c(OC)c3)C2=O)ncc1-c1cn[nH]c1` (single isomer, unassigned) [Example 210, 1-(4-ethyl-5-(1H-pyrazol-4-yl)pyridin-2-yl)-3-((4-fluoro-3-methoxyphenyl)amino) pyrrolidin-2-one], the pIC50 was 5.66 to 7.00.

As to `CCc1nc(N2CCC(Nc3ccc(F)c(OCC4CC4)c3)C2=O)ccc1-c1cn[nH]c1` (single isomer, unassigned) [Example 211, 3-((3-(cyclopropylmelhoxy)-4-fluorophenyl)amino)-1-(6-ethyl-5-(1H-pyrazol-4-yl)pyridin-2-yl)pyrrolidin-2-one], the negative logarithm of the IC50 (pIC50) is 7.00 to 8.00.

`CCc1nc(N2CCC(Nc3ccc(F)c(OCC4CC4)c3)C2=O)ccc1-c1cn[nH]c1` (single isomer, unassigned) [Example 212, 3-((3-(cyclopropylmelhoxy)-4-fluorophenyl)amino)-1-(6-ethyl-5-(1H-pyrazol-4-yl)pyridin-2-yl)pyrrolidin-2-one] had a pIC50 of 5.66 to 7.00.

For the compound `COc1nc(N2CCC(Nc3cccc(OCC4CC4)c3)C2=O)ccc1-c1cn[nH]c1` (single isomer, unassigned) [Example 214, 3-((3-(cyclopropylmethoxy)phenyl)amino)-1-(6-methoxy-5-(1H-pyrazol-4-yl)pyridin-2-yl)pyrrolidin-2-one], the negative-log IC50 (pIC50) is > 8.00.

In the case of `COc1nc(N2CCC(Nc3ccc(F)c(OCC4CC4)c3)C2=O)ccc1-c1cn[nH]c1` (single isomer, unassigned) [Example 216, 3-((3-(cyclopropylmethoxy)-4-fluorophenyl)amino)-1-(6-methoxy-5-(1H-pyrazol-4-yl)pyridin-2-yl)pyrrolidin-2-one], the negative-log IC50 (pIC50) is > 8.00.

Compound `COc1nc(N2CCC(Nc3ccc(F)c(OCC4CC4)c3)C2=O)ccc1-c1cn[nH]c1` (single isomer, unassigned) [Example 217, 3-((3-(cyclopropylmethoxy)-4-fluorophenyl)amino)-1-(6-methoxy-5-(1H-pyrazol-4-yl)pyridin-2-yl)pyrrolidin-2-one] had a negative logarithm of the IC50 (pIC50) of 7.00 to 8.00.

Consider `CCOc1cccc(NC2CCN(c3ccc(-c4cn[nH]c4)c(OC)n3)C2=O)c1` (single isomer, unassigned) [Example 218, 3-((3-ethoxyphenyl)amino)-1-(6-methoxy-5-(1H-pyrazol-4-yl)pyridin-2-yl)pyrrolidin-2-one], for which the negative logarithm of the IC50 (pIC50) is > 8.00.

For the compound `COc1nc(N2CCC(Nc3cccc(OC(F)F)c3)C2=O)ccc1-c1cn[nH]c1` (single isomer, unassigned) [Example 220, 3-((3-(difluoromethoxy)phenyl)amino)-1-(6-methoxy-5-(1H-pyrazol-4-yl)pyridin-2-yl)pyrrolidin-2-one], the negative-log IC50 (pIC50) was > 8.00.

`COc1nc(N2CCC(N3CCOc4ccccc43)C2=O)ccc1-c1cn[nH]c1` (single isomer, unassigned) [Example 229, 3-(2H-benzo[b][1,4]oxazin-4(3H)-yl)-1-(6-methoxy-5-(1H-pyrazol-4-yl)pyridin-2-yl)pyrrolidin-2-one] had a negative-log IC50 (pIC50) of 7.00 to 8.00.

Regarding `COc1nc(N2CCC(N3CCOc4ccccc43)C2=O)ccc1-c1cn[nH]c1` (single isomer, unassigned) [Example 230, 3-(2H-benzo[b][1,4]oxazin-4(3H)-yl)-1-(6-methoxy-5-(1H-pyrazol-4-yl)pyridin-2-yl)pyrrolidin-2-one], the negative-log IC50 (pIC50) was > 8.00.

Regarding `O=C1C(Nc2cccc(OC(F)F)c2)CCN1c1ccc(-c2cn[nH]c2)cc1` (single isomer, unassigned) [Example 231, 1-(4-(1H-pyrazol-4-yl)phenyl)-3-((3-(difluoromethoxy)phenyl)amino) pyrrolidin-2-one], the pIC50 was 7.00 to 8.00.

On to `O=C1C(Nc2cccc(OC(F)F)c2)CCN1c1ccc(-c2cn[nH]c2)cc1` (single isomer, unassigned) [Example 232, 1-(4-(1H-pyrazol-4-yl)phenyl)-3-((3-(difluoromethoxy)phenyl)amino) pyrrolidin-2-one], for which the pIC50 is > 8.00.

The compound `O=C1C(Nc2cccc(OCC3CC3)c2)CCN1c1ccc(-c2cn[nH]c2)cc1` (single isomer, unassigned) [Example 233, 1-(4-(1H-pyrazol-4-yl)phenyl)-3-((3-(cyclopropylmethoxy)phenyl)amino) pyrrolidin-2-one] showed a negative-log IC50 (pIC50) of 7.00 to 8.00.

In the case of `O=C1[C@H](Nc2cccc(OCC3CC3)c2)CCN1c1ccc(-c2cn[nH]c2)cc1` (single isomer, unassigned) [Example 235, 1-(4-(1H-pyrazol-4-yl)phenyl)-3-((3-(cyclopropylmethoxy)phenyl)amino) pyrrolidin-2-one], the negative-log IC50 (pIC50) is > 8.00.

As for `O=C1C(Nc2cccc(OCC(F)F)c2)CCN1c1ccc(-c2cn[nH]c2)cc1` (single isomer, unassigned) [Example 237, 1-(4-(1H-pyrazol-4-yl)phenyl)-3-((3-(2,2-difluoroethoxy)phenyl)amino)pyrrolidin-2-one], the pIC50 was > 8.00.

For the compound `O=C1C(Nc2cccc(OCC(F)F)c2)CCN1c1ccc(-c2cn[nH]c2)cc1` (single isomer, unassigned) [Example 238, 1-(4-(1H-pyrazol-4-yl)phenyl)-3-((3-(2,2-difluoroethoxy)phenyl)amino)pyrrolidin-2-one], the pIC50 is 7.00 to 8.00.

In the case of `COc1ccc(F)c(NC2CCN(c3ccc(-c4cn[nH]c4)cc3)C2=O)c1` (single isomer, unassigned) [Example 239, 1-(4-(1H-pyrazol-4-yl)phenyl)-3-((2-fluoro-5-methoxyphenyl)amino)pyrrolidin-2-one], the pIC50 is 7.00 to 8.00.

`CCc1cc(N2CCC(Nc3ccc(F)c(OC)c3)C2=O)ccc1-c1cn[nH]c1` (single isomer, unassigned) [Example 241, 1-(3-ethyl-4-(1H-pyrazol-4-yl)phenyl)-3-((4-fluoro-3-methoxyphenyl)amino) pyrrolidin-2-one] had a negative-log IC50 (pIC50) of 7.00 to 8.00.

The compound `CCc1cc(N2CCC(Nc3cccc(OC)c3)C2=O)ccc1-c1cn[nH]c1` (single isomer, unassigned) [Example 243, 1-(3-ethyl-4-(1H-pyrazol-4-yl)phenyl)-3-((3-methoxyphenyl)amino)pyrrolidin-2-one] had a pIC50 of 7.00 to 8.00.

Turning to `CCc1cc(N2CCC(Nc3cccc(OC)c3)C2=O)ccc1-c1cn[nH]c1` (single isomer, unassigned) [Example 244, 1-(3-ethyl-4-(1H-pyrazol-4-yl)phenyl)-3-((3-methoxyphenyl)amino)pyrrolidin-2-one], the pIC50 is > 8.00.

With `CCc1cc(N2CCC(Nc3cc(F)cc(OC)c3)C2=O)ccc1-c1cn[nH]c1` (single isomer, unassigned) [Example 245, 1-(3-ethyl-4-(1H-pyrazol-4-yl)phenyl)-3-((3-fluoro-5-methoxyphenyl)amino) pyrrolidin-2-one], the pIC50 is 7.00 to 8.00.

For `CCc1cc(N2CCC(Nc3cc(F)cc(OC)c3)C2=O)ccc1-c1cn[nH]c1` (single isomer, unassigned) [Example 246, 1-(3-ethyl-4-(1H-pyrazol-4-yl)phenyl)-3-((3-fluoro-5-methoxyphenyl)amino) pyrrolidin-2-one], the pIC50 was > 8.00.

As to `CCc1cc(N2CCC(Nc3cccc(OCC4CC4)c3)C2=O)ccc1-c1cn[nH]c1` (single isomer, unassigned) [Example 247, 3-((3-(cyclopropylmethoxy)phenyl)amino)-1-(3-ethyl-4-(1H-pyrazol-4-yl)phenyl)pyrrolidin-2-one], the pIC50 was 7.00 to 8.00.

Turning to `CCc1cc(N2CCC(Nc3cccc(OCC4CC4)c3)C2=O)ccc1-c1cn[nH]c1` (single isomer, unassigned) [Example 248, 3-((3-(cyclopropylmethoxy)phenyl)amino)-1-(3-ethyl-4-(1H-pyrazol-4-yl)phenyl)pyrrolidin-2-one], the pIC50 was 5.66 to 7.00.

`CCOc1cccc(NC2CCN(c3ccc(-c4cn[nH]c4)c(OC)c3)C2=O)c1` (single isomer, unassigned) [Example 249, 3-((3-ethoxyphenyl)amino)-1-(3-methoxy-4-(1H-pyrazol-4-yl)phenyl)pyrrolidin-2-one] showed a pIC50 of 7.00 to 8.00.

In the case of `CCOc1cccc(NC2CCN(c3ccc(-c4cn[nH]c4)c(OC)c3)C2=O)c1` (single isomer, unassigned) [Example 250, 3-((3-ethoxyphenyl)amino)-1-(3-methoxy-4-(1H-pyrazol-4-yl)phenyl)pyrrolidin-2-one], the pIC50 was > 8.00.

The compound `CNc1nc(N2CCC(Nc3cc(F)cc(OC)c3)C2=O)ccc1-c1cn[nH]c1` (single isomer, unassigned) [Example 251, 3-((3-fluoro-5-methoxyphenyl)amino)-1-(6-(methylamino)-5-(1H-pyrazol-4-yl)pyridin-2-yl)pyrrolidin-2-one] showed a pIC50 of 7.00 to 8.00.

In the case of `CNc1nc(N2CCC(Nc3cc(F)cc(OC)c3)C2=O)ccc1-c1cn[nH]c1` (single isomer, unassigned) [Example 252, 3-((3-fluoro-5-methoxyphenyl)amino)-1-(6-(methylamino)-5-(1H-pyrazol-4-yl)pyridin-2-yl)pyrrolidin-2-one], the pIC50 was > 8.00.

Compound `CNc1nc(N2CCC(Nc3cccc(OC)c3)C2=O)ccc1-c1cn[nH]c1` (single isomer, unassigned) [Example 253, 3-((3-methoxyphenyl)amino)-1-(6-(methylamino)-5-(1H-pyrazol-4-yl)pyridin-2-yl)pyrrolidin-2-one] gave a negative logarithm of the IC50 (pIC50) of 7.00 to 8.00.

As to `COc1cccc(NC2CCN(c3ccc(-c4cn[nH]c4)nc3)C2=O)c1` (single isomer, unassigned) [Example 297, 1-(6-(1H-pyrazol-4-yl)pyridin-3-yl)-3-((3-methoxyphenyl)amino)pyrrolidin-2-one], the negative-log IC50 (pIC50) is 7.00 to 8.00.
